Here are results for 4 molecules from ChEMBL document CHEMBL4610064, “DNA-Encoded Library Screening as Core Platform Technology in Drug Discovery: Its Synthetic Method Development and Applications in DEL Synthesis” (J Med Chem, 2020).

In brackets after ≈: the same amount, converted by molar mass. Where only a bound is given, the exact number is not on record here.

The target of data set [1] is Substance-P receptor (Homo sapiens) (UniProt P25103). The data set can be described thus: Antagonist activity at NK1 (unknown origin).
The target in data set [2] is T1, Neuromedin-K receptor (Homo sapiens) (UniProt P29371).
T1 sequence (whole entry): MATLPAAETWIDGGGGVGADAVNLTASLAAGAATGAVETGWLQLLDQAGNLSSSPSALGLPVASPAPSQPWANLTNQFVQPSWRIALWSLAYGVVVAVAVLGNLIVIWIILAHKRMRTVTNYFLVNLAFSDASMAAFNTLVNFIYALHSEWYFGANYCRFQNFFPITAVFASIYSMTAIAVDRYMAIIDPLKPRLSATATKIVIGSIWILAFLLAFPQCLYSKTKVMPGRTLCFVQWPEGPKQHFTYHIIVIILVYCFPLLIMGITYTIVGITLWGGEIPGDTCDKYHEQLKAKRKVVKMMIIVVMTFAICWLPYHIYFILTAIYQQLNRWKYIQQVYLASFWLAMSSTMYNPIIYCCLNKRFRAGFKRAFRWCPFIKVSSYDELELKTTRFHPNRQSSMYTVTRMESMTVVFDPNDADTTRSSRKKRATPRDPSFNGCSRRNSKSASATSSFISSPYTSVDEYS
The data set can be described thus: Antagonist activity at NK3 (unknown origin).

The target of data set [3] is T2, Substance-K receptor (Homo sapiens) (UniProt P21452).
T2 sequence (whole entry): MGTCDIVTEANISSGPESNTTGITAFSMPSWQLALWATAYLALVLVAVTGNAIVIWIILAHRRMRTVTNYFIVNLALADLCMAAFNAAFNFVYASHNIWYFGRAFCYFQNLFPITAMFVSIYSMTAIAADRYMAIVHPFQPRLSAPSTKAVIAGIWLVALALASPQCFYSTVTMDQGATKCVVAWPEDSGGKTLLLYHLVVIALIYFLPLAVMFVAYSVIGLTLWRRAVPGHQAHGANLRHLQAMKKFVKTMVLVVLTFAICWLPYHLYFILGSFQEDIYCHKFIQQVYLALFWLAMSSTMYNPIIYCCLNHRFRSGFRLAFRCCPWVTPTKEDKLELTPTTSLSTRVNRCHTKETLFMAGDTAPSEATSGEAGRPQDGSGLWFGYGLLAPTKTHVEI
The data set is described as follows: Antagonist activity at NK2 (unknown origin).

The nature of data set [4]: Aqueous solubility of the compound. It counts as physicochemical. The settings on record: water.

Chain of Substance-P receptor (Homo sapiens) (P25103 whole entry): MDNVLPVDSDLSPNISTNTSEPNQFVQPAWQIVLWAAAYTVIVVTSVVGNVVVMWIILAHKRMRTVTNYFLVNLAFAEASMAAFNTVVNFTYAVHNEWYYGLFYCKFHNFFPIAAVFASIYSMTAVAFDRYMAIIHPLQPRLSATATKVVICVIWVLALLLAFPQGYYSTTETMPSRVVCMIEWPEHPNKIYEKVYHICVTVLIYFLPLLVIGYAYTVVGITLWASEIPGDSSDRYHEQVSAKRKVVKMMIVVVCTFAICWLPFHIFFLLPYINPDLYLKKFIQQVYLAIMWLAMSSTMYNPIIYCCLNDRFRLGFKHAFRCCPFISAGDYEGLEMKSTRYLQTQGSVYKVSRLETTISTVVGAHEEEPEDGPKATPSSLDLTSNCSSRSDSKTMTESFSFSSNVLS

As for `CCn1c(-c2ccccc2-c2ccc(C)cc2C)nc2cc(C(=O)NC)ccc21`, the fKi was above 1000 nM in data set [1], 1.2 nM in data set [2] and above 1000 nM in data set [3].

Consider `CNC(=O)CN1CN(c2ccccc2)C2(CCN(C(=O)c3ccc4[nH]ncc4c3)CC2)C1=O`, for which the concentration in solution in data set [4] (solubility) was 1.4 µg/mL (≈ 3.14 µM).

On to `Cn1c(-c2c[nH]c3cc(C#N)ccc23)nc2cc(C(=O)N3CCOC(c4ccccc4)C3CO)ccc21` (stereo not drawn), for which the results for the fKi in data set [1], in data set [2] and in data set [3] were above 1000 nM, 1.2 nM and above 1000 nM, respectively.

`O=C(CN1C(=O)C2(CCN(C(=O)c3ccc4[nH]ncc4n3)CC2)c2c(Br)cccc21)NCC(F)(F)F`: the solubility (commonly the dissolved amount per volume that the medium holds) in data set [4] stood at 103 µg/mL (≈ 182 µM).
